Where no end group is shown, it is not given here.
What was measured:
[1] = Leakage of CAT1 probe from DSPC/Chol/DDAB liposomes (ESR)
Experimental: A solution of DSPC (51.6 mg), cholesterol (20.2 mg) and dimethyldioctadecyl ammonium bromide (DDAB; 8.23 mg) was dried in a round-bottom flask. The lipids were rehydrated with buffer (10 mM HEPES, 150 mM NaCl) containing 0.5 mM of the probe CAT1 so as to form a suspension of multilamellar liposomes. The suspension was heated at 65 deg. C. for 10 min and then washed twice in 10 ml of the HEPES buffer, with the final pellet comprising DSPC/Chol/DDAB multilamellar liposomes containing CAT1, being resuspended in HEPES buffer to a final volume of 2 ml. A standard phosphate assay (see Chen et al., Anal. Chem. 28:1956 (1956)) was performed to determine the amount of lipid remaining (34.12 mg).
Various amounts of this solution (see Table 2, below) were combined with an aliquot (100 μl) of the liposome suspension, the final volume of the samples being brought up to 0.2 ml with HEPES buffer. These samples were centrifuged, and aliquots of the supernatants were taken for ESR spectra determination (23 deg. C.) to measure probe leakage.

[2] = Right angle light scattering of aqueous indolicidin; format: physicochemical; details: 10 mM HEPES, 150 mM NaCl, pH 7.5; light scattering 500 nm, 90 degrees
Experimental: FIG. 1. Right Angle Light Scattering of Aqueous Indolicidin. […] Samples were placed in fluorescence cuvettes and the scattering of light at 500 nm wavelengths (excitation wavelength) was measured in the fluorimeter at an angle of 90 degrees.
Samples were placed in fluorescence cuvettes and light scattering at 500 nm ([…] in the fluorimeter, at a 90 degree angle.

[3] = Leakage of CAT1 probe from DSPC/Chol liposomes (ESR); details: for % Probe in Supernatant: CAT1, 23 deg. C
Experimental: A solution of DSPC (60 mg) and cholesterol (20 mg) was dried by rotary evaporation; the dried lipids were then rehydrated with 2 ml of buffer (10 mM HEPES, 150 mM NaCl), containing 0.5 mM of the probe CAT1 (4-trimethylammmonium-2,2,6,6-tetramethylpiperidine-1-oxyl-iodide) so as to form a suspension of multilamellar liposomes containing the probe. A suspension of these vesicles was then heated for 10 min. at 65 deg. C. The sample was washed four times with HEPES buffer and resuspended in buffer to a final volume of 2 ml. […] Various amounts of this solution (see Table 1, below) were combined with an aliquot (100 μl) of the liposome preparation, with buffer then being added to bring the final volume up to 0.2 ml. Samples were microfuged, and the supernatants transferred to ESR tubes. Spectra were taken at room temperature (23 deg. C.) to determine the concentration of the probe in the supernatant samples (see Perkins et al., Biochim. Biophys. Acta. 943:103 (1988)).
The data (see Table 1, below) indicates the percent of the probe found in the supernatant, and thereby, the percent leakage from the DSPC/Chol liposomes.

In vivo acute toxicity = test: In vivo acute toxicity; design: species or system Balb/c mice; details: for Number of Animals Dead: tail vein
Experimental: Mice were also injected with saline and with empty liposomes.

Aspergillus fumigatus = test: Treatment of Aspergillus fumigatus infections in mice; format: in vivo, Balb/c mice; details: 2 mg/kg, given six hours after 2×10^7 A. fumigatus spores; 15-day period
Source text: FIG. 14. Therapeutic Efficacy of Free and Liposomal Indolicidin Against Aspergillus Infections in Mice. […] The animals' survival was monitored over a period of fifteen days. Percent survival (vertical axis) is plotted against time in days (horizontal axis).
Male Balb/c mice were each injected with 2×10^7 Aspergillus fumigatus spores by injection in the tail vein. After six hours, the mice were randomly divided into five groups of 10 mice each. […] The animals' survival was monitored over a 15-day period.

protein kinase C = details: Charp et al., Biochem. Pharmacol. 37(5):951 (1988); cited from earlier work

Question: What does the source list for CC[C@H](C)[C@H](N)C(=O)N[C@@H](CC(C)C)C(=O)N1CCC[C@H]1C(=O)N[C@@H](Cc1c[nH]c2ccccc12)C(=O)N[C@@H](CCCCN)C(=O)N[C@@H](Cc1c[nH]c2ccccc12)C(=O)N1CCC[C@H]1C(=O)N[C@@H](Cc1c[nH]c2ccccc12)C(=O)N[C@@H](Cc1c[nH]c2ccccc12)C(=O)N1CCC[C@H]1C(=O)N[C@@H](Cc1c[nH]c2ccccc12)C(=O)N[C@@H](CCCNC(=N)N)C(=O)N[C@@H](CCCNC(=N)N)C(N)=O [indolicidin]?
Answer: % Probe in Supernatant ([1]; 0.48 mole % indolicidin (3.20 μl stock), CAT1, 23 deg. C): 8.00%; % Probe in Supernatant ([1]; 0.93 mole % indolicidin (6.30 μl stock)): 8.00%; % Probe in Supernatant ([1]; 1.84 mole % indolicidin (12.50 μl stock)): 9.78%; % Probe in Supernatant ([1]; 3.61 mole % indolicidin (25.00 μl stock)): 10.67%; % Probe in Supernatant ([1]; 6.99 mole % indolicidin (50.00 μl stock)): 9.78%; % Probe in Supernatant ([1]; 10.09 mole % indolicidin (75.00 μl stock), corrected for any liposomes in the supernatant): 0%; % Probe in Supernatant ([1]; 13.04 mole % indolicidin (100.00 μl stock), corrected for any liposomes in the supernatant): 0%; concentration at which indolicidin self-associates in solution [2]: ≥ 30000 ng/mL; % Leakage of Probe ([3]; 0.42 mole % indolicidin): 1.75%; % Probe in Supernatant ([3]; 0.42 mole % indolicidin (3.20 μl stock)): 6.14%; % Leakage of Probe ([3]; 0.82 mole % indolicidin): 1.75%; % Probe in Supernatant ([3]; 0.82 mole % indolicidin (6.30 μl stock)): 6.14%; % Leakage of Probe ([3]; 1.61 mole % indolicidin): 0.87%; % Probe in Supernatant ([3]; 1.61 mole % indolicidin (12.50 μl stock)): 5.26%; % Leakage of Probe ([3]; 3.16 mole % indolicidin): 1.75%; % Probe in Supernatant ([3]; 3.16 mole % indolicidin (25.00 μl stock)): 6.14%; % Leakage of Probe ([3]; 6.16 mole % indolicidin): 2.63%; % Probe in Supernatant ([3]; 6.16 mole % indolicidin (50.00 μl stock)): 7.02%; % Leakage of Probe ([3]; 8.93 mole % indolicidin): 1.75%; % Probe in Supernatant ([3]; 8.93 mole % indolicidin (75.00 μl stock)): 6.14%; effect of increasing indolicidin concentration on probe leakage ([3]; DSPC/Chol liposomes, 0.42-8.93 mole % indolicidin): did not significantly increase probe leakage; Number of Animals Dead (In vivo acute toxicity; free indolicidin dose 0.4 mg/kg): 0/5; Number of Animals Dead (In vivo acute toxicity; free indolicidin dose 1.2 mg/kg): 1/5; Number of Animals Dead (In vivo acute toxicity; free indolicidin dose 4.0 mg/kg): 3/5; Number of Animals Dead (In vivo acute toxicity; free indolicidin dose 12.0 mg/kg): 0/5; LD50 (In vivo acute toxicity; male Balb/c mice, tail vein injection): 3 mg/kg; survival times of infected mice (Aspergillus fumigatus): slight increase in survival times

Question: With “HNP-1: human neutrophil protein 1, a prototypical mammalian defensin” as the molecule, how does the “protein kinase C activity” value (protein kinase C) read?
Answer: The value was “inhibited”.

Question: With “HNP-2: human neutrophil protein 2, a prototypical mammalian defensin (CYCRIPACIAGERRYGTCIYQGRLWAFCC; ends and bridges not checked; cysteine pairing not given here; UniProt P59665 66-94, looked up)” as the molecule, how does the “protein kinase C activity” value (protein kinase C) read?
Answer: Its value is “inhibited”.

Question: With “HNP-3: human neutrophil protein 3, a prototypical mammalian defensin” as the molecule, how does the “protein kinase C activity” value (protein kinase C) read?
Answer: Its value is “inhibited”.
